# Numbered stars: 1 amine (or outer) side, 2 acyl side, 3 side chain; on linkers, the order of the positions; unused ones are H or OH. Bridge positions count the residues as written; N and C are the ends. Square brackets hold non-standard residues; d marks the D form. Peptide text beside a SMILES is read from it. * marks the point of attachment. ξ: configuration not given here. Bip(3'-COOH) = N[C@@H](Cc1ccc(-c2cccc(C(=O)O)c2)cc1)C(=O)O; X23 = O=C([C@H](Cc1cc2ccccc2cn1)N[*:1])[*:2]; X27 = O=C([C@H](Cc1ccc2ncccc2c1)N[*:1])[*:2]; Bip = N[C@@H](Cc1ccc(-c2ccccc2)cc1)C(=O)O; 4Pal = N[C@@H](Cc1ccncc1)C(=O)O; Cha = N[C@@H](CC1CCCCC1)C(=O)O; Cit = NC(=O)NCCC[C@H](N)C(=O)O; Ile(3ξ) = CCC(C)[C@H](N)C(=O)O; Thr(3ξ) = CC(O)[C@H](N)C(=O)O; Dap(Me) = CNC[C@H](N)C(=O)O; ξCha = NC(CC1CCCCC1)C(=O)O; hSer = N[C@@H](CCO)C(=O)O; Carboxymethyl = O=C(O)C*; NMeA = CN[C@@H](C)C(=O)O; Dab = NCC[C@H](N)C(=O)O; Bn = c1ccc(C*)cc1
# Target: T1, PE-labeled human PD-L1-Ig binding to Jurkat cell line over-expressing human PD-1 (Jurkat-PD-1) (Homo sapiens, UniProt Q15116)
# T1 construct: expressed in transfected cells; host or cells: Jurkat
# T1 sequence (Q15116 25-288): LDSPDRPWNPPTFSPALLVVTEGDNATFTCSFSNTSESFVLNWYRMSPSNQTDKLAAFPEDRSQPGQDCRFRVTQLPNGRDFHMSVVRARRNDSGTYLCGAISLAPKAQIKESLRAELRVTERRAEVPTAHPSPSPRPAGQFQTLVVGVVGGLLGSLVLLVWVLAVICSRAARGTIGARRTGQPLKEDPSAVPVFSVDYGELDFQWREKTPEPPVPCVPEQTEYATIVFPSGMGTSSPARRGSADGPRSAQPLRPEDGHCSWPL
# Experiment: Jurkat-PD-1 Cell Binding High-Content Screening Assay (CBA): Method 1
# Details: Jurkat HPDL1 PD1 IC50 (uM) (Method 1), Jurkat-hPD-1 cells, PE-labeled PD-L1-Ig 20 nM final
row,Structure (SMILES),IC50 [µM]
1,CC(C)C[C@@H]1NC(=O)[C@H](Cc2c[nH]c3ccccc23)NC(=O)[C@H](CC(=O)O)NC(=O)[C@H](Cc2ccc(OCC(=O)O)cc2)NC(=O)[C@H](Cc2ccccc2)NC(=O)CSC[C@@H](C(=O)N[C@@H](C)C(N)=O)NC(=O)[C@H](CO)NC(=O)[C@H](C(C)C)NC(=O)[C@H](CC(C)C)NC(=O)[C@H](CC(N)=O)NC(=O)[C@@H](CC(C)C)NC(=O)[C@H](C)N(C)C(=O)[C@H](C(C)C)NC(=O)[C@H](Cc2ccc(OCc3ccccc3)cc2)NC1=O [Compound 2028] ({CH2CO}-FY(Carboxymethyl)DWLY(Bn)V[NMeA][dL]NLVSCA-NH2; thioether N-14),0.48

# Same assay, conditions: Jurkat-hPD-1 cells, PE-labeled PD-L1-Ig 20 nM final; read-out: Jurkat HPDL1 PD1 IC50 (uM) (Method 1)
row,IC50 [µM],Structure (SMILES)
1,0.04,CC(C)C[C@@H]1NC(=O)[C@H](Cc2c[nH]c3ccccc23)NC(=O)[C@H](CC(=O)O)NC(=O)[C@H](Cc2ccc(OCC(=O)O)cc2)NC(=O)[C@H](Cc2ccccc2)NC(=O)CSC[C@@H](C(=O)N[C@@H](C)C(N)=O)NC(=O)[C@H](CO)NC(=O)[C@H](C(C)C)NC(=O)[C@H](CC(C)C)NC(=O)[C@H](CC(N)=O)NC(=O)[C@@H](CC(C)C)NC(=O)[C@H](C)N(C)C(=O)[C@H](CC(=O)O)NC(=O)[C@H](Cc2ccc(-c3ccccc3)cc2)NC1=O [Compound 2029] ({CH2CO}-FY(Carboxymethyl)DWL[Bip]D[NMeA][dL]NLVSCA-NH2; thioether N-14)
2,0.03,CC(C)C[C@@H]1NC(=O)[C@H](Cc2c[nH]c3ccccc23)NC(=O)[C@H](CC(=O)O)NC(=O)[C@H](Cc2ccc(OCC(=O)O)cc2)NC(=O)[C@H](Cc2ccccc2)NC(=O)CSC[C@@H](C(=O)N[C@@H](C)C(N)=O)NC(=O)[C@H](CO)NC(=O)[C@H](C(C)C)NC(=O)[C@H](CC(C)C)NC(=O)[C@H](CC(N)=O)NC(=O)[C@@H](CC(C)C)NC(=O)[C@H](C)N(C)C(=O)[C@H](CCCCN)NC(=O)[C@H](Cc2ccc(-c3ccccc3)cc2)NC1=O [Compound 2030] ({CH2CO}-FY(Carboxymethyl)DWL[Bip]K[NMeA][dL]NLVSCA-NH2; thioether N-14)
3,0.07,CC(C)C[C@@H]1NC(=O)[C@H](CC(N)=O)NC(=O)[C@@H](CC(C)C)NC(=O)[C@H](C)N(C)C(=O)[C@H](CCCNC(N)=O)NC(=O)[C@H](Cc2ccc(-c3ccccc3)cc2)NC(=O)[C@H](C(C)C)NC(=O)[C@H](Cc2c[nH]c3ccccc23)NC(=O)[C@H](CC(=O)O)NC(=O)[C@H](Cc2ccc(O)cc2)NC(=O)[C@H](Cc2ccccc2)NC(=O)CSC[C@@H](C(=O)N[C@@H](C)C(N)=O)NC(=O)[C@H](C(C)O)NC(=O)[C@H](C(C)C)NC1=O (stereo partly drawn) [Compound 2031] ({CH2CO}-FYDWV[Bip][Cit][NMeA][dL]NLV[Thr(3ξ)]CA-NH2; thioether N-14)
4,0.05,CC(C)C[C@@H]1NC(=O)[C@H](CCO)NC(=O)[C@@H](CC(C)C)NC(=O)[C@H](C)N(C)C(=O)[C@H](CCCNC(N)=O)NC(=O)[C@H](Cc2ccc(-c3ccccc3)cc2)NC(=O)[C@H](C(C)C)NC(=O)[C@H](Cc2c[nH]c3ccccc23)NC(=O)[C@H](CC(=O)O)NC(=O)[C@H](Cc2ccc(O)cc2)NC(=O)[C@H](Cc2ccccc2)NC(=O)CSC[C@@H](C(=O)N[C@@H](C)C(N)=O)NC(=O)[C@H](C(C)O)NC(=O)[C@H](C(C)C)NC1=O (stereo partly drawn) [Compound 2032] ({CH2CO}-FYDWV[Bip][Cit][NMeA][dL][hSer]LV[Thr(3ξ)]CA-NH2; thioether N-14)
5,0.03,CC(C)C[C@@H]1NC(=O)[C@H](CCN)NC(=O)[C@@H](CC(C)C)NC(=O)[C@H](C)N(C)C(=O)[C@H](CCCNC(N)=O)NC(=O)[C@H](Cc2ccc(-c3ccccc3)cc2)NC(=O)[C@H](C(C)C)NC(=O)[C@H](Cc2c[nH]c3ccccc23)NC(=O)[C@H](CC(=O)O)NC(=O)[C@H](Cc2ccc(O)cc2)NC(=O)[C@H](Cc2ccccc2)NC(=O)CSC[C@@H](C(=O)N[C@@H](C)C(N)=O)NC(=O)[C@H](C(C)O)NC(=O)[C@H](C(C)C)NC1=O (stereo partly drawn) [Compound 2033] ({CH2CO}-FYDWV[Bip][Cit][NMeA][dL][Dab]LV[Thr(3ξ)]CA-NH2; thioether N-14)
6,0.06,CNC[C@@H]1NC(=O)CSC[C@@H](C(=O)N[C@@H](C)C(N)=O)NC(=O)[C@H](C(C)O)NC(=O)[C@H](C(C)C)NC(=O)[C@H](CC(C)C)NC(=O)[C@H](CCN)NC(=O)[C@@H](CC(C)C)NC(=O)[C@H](C)N(C)C(=O)[C@H](CCCNC(N)=O)NC(=O)[C@H](Cc2ccc(-c3ccccc3)cc2)NC(=O)[C@H](C(C)C)NC(=O)[C@H](Cc2c[nH]c3ccccc23)NC(=O)[C@H](CC(=O)O)NC(=O)[C@H](Cc2ccc(O)cc2)NC1=O (stereo partly drawn) [Compound 2034] ({CH2CO}-[Dap(Me)]YDWV[Bip][Cit][NMeA][dL][Dab]LV[Thr(3ξ)]CA-NH2; thioether N-14)
7,0.04,CC(C)C[C@@H]1NC(=O)[C@H](CCN)NC(=O)[C@@H](CC(C)C)NC(=O)[C@H](C)N(C)C(=O)[C@H](CCCNC(N)=O)NC(=O)[C@H](Cc2ccc(-c3ccccc3)cc2)NC(=O)[C@H](C(C)C)NC(=O)[C@H](Cc2c[nH]c3ccccc23)NC(=O)[C@H](CC(=O)O)NC(=O)[C@H](Cc2ccc(O)cc2)NC(=O)[C@H](Cc2cc3ccccc3cn2)NC(=O)CSC[C@@H](C(=O)N[C@@H](C)C(N)=O)NC(=O)[C@H](C(C)O)NC(=O)[C@H](C(C)C)NC1=O (stereo partly drawn) [Compound 2035] ({CH2CO}-[X23]YDWV[Bip][Cit][NMeA][dL][Dab]LV[Thr(3ξ)]CA-NH2; thioether N-14)
8,0.04,CC(C)C[C@@H]1NC(=O)[C@H](CCN)NC(=O)[C@@H](CC(C)C)NC(=O)[C@H](C)N(C)C(=O)[C@H](CCCNC(N)=O)NC(=O)[C@H](Cc2ccc(-c3ccccc3)cc2)NC(=O)[C@H](C(C)C)NC(=O)[C@H](Cc2c[nH]c3ccccc23)NC(=O)[C@H](CC(=O)O)NC(=O)[C@H](Cc2ccc(O)cc2)NC(=O)[C@H](Cc2ccc3ncccc3c2)NC(=O)CSC[C@@H](C(=O)N[C@@H](C)C(N)=O)NC(=O)[C@H](C(C)O)NC(=O)[C@H](C(C)C)NC1=O (stereo partly drawn) [Compound 2036] ({CH2CO}-[X27]YDWV[Bip][Cit][NMeA][dL][Dab]LV[Thr(3ξ)]CA-NH2; thioether N-14)

# Further lines, the molecule ahead of its results:
row,Structure (SMILES),IC50 [µM]
1,CCC(C)[C@@H]1NC(=O)[C@H](Cc2ccc(-c3ccccc3)cc2)NC(=O)[C@H](C(C)C)NC(=O)[C@H](Cc2c[nH]c3ccccc23)NC(=O)[C@H](CC(N)=O)NC(=O)[C@H](Cc2ccc(OCC(=O)O)cc2)NC(=O)[C@H](Cc2ccncc2)NC(=O)CSC[C@@H](C(=O)N[C@@H](C)C(=O)N[C@@H](CCCCN)C(N)=O)NC(=O)[C@H](C(C)O)NC(=O)[C@H](C(C)C)NC(=O)C(CC2CCCCC2)NC(=O)[C@H](CC(N)=O)NC(=O)[C@@H](CC(C)C)NC(=O)[C@H](C)N(C)C1=O (stereo partly drawn) [Compound 2018] ({CH2CO}-[4Pal]Y(Carboxymethyl)NWV[Bip][Ile(3ξ)][NMeA][dL]N[ξCha]V[Thr(3ξ)]CAK-NH2; thioether N-14),0.12
2,CCC(C)[C@@H]1NC(=O)[C@H](Cc2ccc(-c3ccccc3)cc2)NC(=O)[C@H](C(C)C)NC(=O)[C@H](Cc2c[nH]c3ccccc23)NC(=O)[C@H](CC(N)=O)NC(=O)[C@H](Cc2ccc(-c3cccc(C(=O)O)c3)cc2)NC(=O)[C@H](Cc2ccncc2)NC(=O)CSC[C@@H](C(=O)N[C@@H](C)C(=O)N[C@@H](CCCCN)C(N)=O)NC(=O)[C@H](C(C)O)NC(=O)[C@H](C(C)C)NC(=O)C(CC2CCCCC2)NC(=O)[C@H](CC(N)=O)NC(=O)[C@@H](CC(C)C)NC(=O)[C@H](C)N(C)C1=O (stereo partly drawn) [Compound 2019] ({CH2CO}-[4Pal][Bip(3'-COOH)]NWV[Bip][Ile(3ξ)][NMeA][dL]N[ξCha]V[Thr(3ξ)]CAK-NH2; thioether N-14),0.28
3,CC(C)C[C@H]1NC(=O)[C@H](C)N(C)C(=O)[C@H](CCCNC(N)=O)NC(=O)[C@H](Cc2ccc(-c3ccccc3)cc2)NC(=O)[C@H](C(C)C)NC(=O)[C@H](Cc2c[nH]c3ccccc23)NC(=O)[C@H](CC(=O)O)NC(=O)[C@H](Cc2ccc(OCC(=O)O)cc2)NC(=O)[C@H](Cc2ccccc2)NC(=O)CSC[C@@H](C(=O)N[C@@H](C)C(N)=O)NC(=O)[C@H](CO)NC(=O)[C@H](C(C)C)NC(=O)[C@H](CC2CCCCC2)NC(=O)[C@H](CC(N)=O)NC1=O [Compound 2022] ({CH2CO}-FY(Carboxymethyl)DWV[Bip][Cit][NMeA][dL]N[Cha]VSCA-NH2; thioether N-14),0.01
4,CC(C)C[C@@H]1NC(=O)[C@H](CC(N)=O)NC(=O)[C@@H](CC(C)C)NC(=O)[C@H](C)N(C)C(=O)[C@H](C(C)C)NC(=O)[C@H](Cc2ccc(-c3ccccc3)cc2)NC(=O)[C@H](CCN)NC(=O)[C@H](Cc2c[nH]c3ccccc23)NC(=O)[C@H](CC(=O)O)NC(=O)[C@H](Cc2ccc(O)cc2)NC(=O)[C@H](Cc2ccccc2)NC(=O)CSC[C@@H](C(=O)N[C@@H](C)C(N)=O)NC(=O)[C@H](CO)NC(=O)[C@H](C(C)C)NC1=O [Compound 2025] ({CH2CO}-FYDW[Dab][Bip]V[NMeA][dL]NLVSCA-NH2; thioether N-14),0.26
5,CC(C)C[C@@H]1NC(=O)[C@H](CC(N)=O)NC(=O)[C@@H](CC(C)C)NC(=O)[C@H](C)N(C)C(=O)[C@H](C(C)C)NC(=O)[C@H](Cc2ccc(-c3ccccc3)cc2)NC(=O)[C@H](CCN)NC(=O)[C@H](Cc2c[nH]c3ccccc23)NC(=O)[C@H](CC(=O)O)NC(=O)[C@H](Cc2ccc(O)cc2)NC(=O)[C@H](Cc2ccccc2)NC(=O)CSC[C@@H](C(=O)N[C@@H](C)C(N)=O)NC(=O)[C@H](CO)NC(=O)[C@H](CC(=O)O)NC1=O [Compound 2026] ({CH2CO}-FYDW[Dab][Bip]V[NMeA][dL]NLDSCA-NH2; thioether N-14),0.12
6,CC(C)C[C@@H]1NC(=O)[C@H](Cc2c[nH]c3ccccc23)NC(=O)[C@H](CC(=O)O)NC(=O)[C@H](Cc2ccc(OCC(=O)O)cc2)NC(=O)[C@H](Cc2ccccc2)NC(=O)CSC[C@@H](C(=O)N[C@@H](C)C(N)=O)NC(=O)[C@H](CO)NC(=O)[C@H](C(C)C)NC(=O)[C@H](CC(C)C)NC(=O)[C@H](CC(=O)O)NC(=O)[C@@H](CC(C)C)NC(=O)[C@H](C)N(C)C(=O)[C@H](C(C)C)NC(=O)[C@H](Cc2ccc(-c3ccccc3)cc2)NC1=O [Compound 2027] ({CH2CO}-FY(Carboxymethyl)DWL[Bip]V[NMeA][dL]DLVSCA-NH2; thioether N-14),0.02
